Laboratory results: patent US6689381B2, “Liposomal benzoquinazoline thymidylate synthase inhibitor formulations” (OSI Pharmaceuticals, Inc., priority 2000, dated 2004)

Columns and labels:
[1] = test system: human colon tumor xenograft model (HCT-8, thymidine kinase (TK)-/-); assay: HCT-8 xenograft, second study: liposomal GW1843U89 versus free drug (Table 26); format: in vivo, Female Nu/Nu mice
Description: Female Nu/Nu mice (18-24 g, 10-14 weeks old) were obtained from Harlan Sprague Dawley, and housed in microisolator filtration racks and maintained with filtered acidified water and sterile lab chow ad libitum. The human colon tumor xenograft model (HCT-8, thymidine kinase (TK)−/−) was obtained from Dr. Youcef M. Rustum (Roswell Park, Buffalo, N.Y.), and established in-house as a useful model for evaluation of thymidylate synthase inhibitors. Animals were allowed to acclimate to their new environment for 1 week prior to tumor cell implantation. Tumors were established by injecting harvested tumor cells in a single subcutaneous site on the flank of the mice in the axillary region. The tumors were grown until approximately 200+/−50 mm^3 in size. The animals were then sorted according to body weight, grouped four animals/cage, and tattooed on the tail for permanent identification. […] Tumor volumes were determined with vernier caliper measurements taken at right angles using the formula, (L×W^2/2) and body weights, were collected twice weekly. Data was plotted as % change in body weight vs. time in days, and % tumor volume increase vs. days.
(§1) T=(mean) time in days for treated group to reach cutoff size (2 grams)
(§2) C=(mean) time in days for control group to reach cutoff size (2 grams)
(§3) WC is the mean tumor weight of control group at time x
(§4) Wt is mean tumor weight of treated group at time x
% Regression=100 (Wo−Wi)/Wo; where Wo is the mean tumor weight for treated group at the initiation of treatment and Wi=the mean tumor weight for that group at time some time x after treatment. Many times the time x=24-48 hr after the final dose of therapy.
The log10 cell kill (gross)=[T−C value in days/(3.32)(Td)
Where T−C=time difference in days between Treated and Control tumors to reach a defined end point; and Td is the Tumor Volume Doubling time in days from the best-fit straight line from a log-linear growth plot of the control tumors exponential growth (100-800 mg range). […]

[2] = test system: human colon tumor xenograft model (HCT-8, thymidine kinase (TK)-/-); assay: HCT-8 xenograft, NX1843 dose schedule study and combinations with 5-FU, NX211 and GW1843 (Table 27); format: in vivo, nude mice
Description: Female Nu/Nu mice (18-24 g, 10-14 weeks old) were obtained from Harlan Sprague Dawley, and housed in microisolator filtration racks and maintained with filtered acidified water and sterile lab chow ad libitum. […] Animals were allowed to acclimate to their new environment for 1 week prior to tumor cell implantation. Tumors were established by injecting harvested tumor cells in a single subcutaneous site on the flank of the mice in the axillary region. The tumors were grown until approximately 200+/−50 mm^3 in size. The animals were then sorted according to body weight, grouped four animals/cage, and tattooed on the tail for permanent identification. Groups consisting of 8 tumor-bearing mice each were administered weekly doses of experimental agents by IV bolus injection through the tail vein. Tumor volumes were determined with vernier caliper measurements taken at right angles using the formula, (L×W^2/2) and body weights, were collected twice weekly. Data was plotted as % change in body weight vs. time in days, and % tumor volume increase vs. days.
as §1, §2, §3, §4
% Regression=100 (Wo−Wi)/Wo; where Wo is the mean tumor weight for treated group at the initiation of treatment and Wi=the mean tumor weight for that group at time some time x after treatment.
In addition to these dose groups the free drug was dosed at 100 mg/kg on days 1-5, and repeated for a second week.

Cc1nc2ccc3ccc(CNc4ccc5c(c4)CN(C(CCC(=O)O)C(=O)O)C5=O)cc3c2c(=O)[nH]1 (centres unmarked) [GW1843]
log cell kill ([1]; 25 mg/kg every day (total 350 mg/kg)): 1.5 | log cell kill ([1]; 50 mg/kg every day (total 700 mg/kg)): 3.5 | tumor regression ([1]; 25 and 50 mg/kg every day): no tumor regression occurred | % TGI ([2]; 100 mg/kg, QD1-5 × 2): 80% | Cures ([2]; 100 mg/kg, QD1-5 × 2): 0 | LCK ([2]; 100 mg/kg, QD1-5 × 2): 2.4 | % Regression day 22 ([2]; 100 mg/kg, QD1-5 × 2, day 22): 0% | log cell kill (LCK) ([2]; iv, NX1843 25 mg/kg d1,8, 15 mg/kg QD(1,3,5)×2 or 7.5 mg/kg QD(1-5)×2, GW1843 100 mg/kg d1-5 ×2, 5FU 100 mg/kg d1,8, NX211 6 mg/kg d1,8, combinations at same doses): 2.4
